Paper PMC6450877, “A revised biosynthetic pathway for the cofactor F420 in prokaryotes” (Nature Communications, 2019)

What was measured:
Mtb-FbiB [1] = target: T1, Mtb-FbiB (Mycobacterium tuberculosis, UniProt P9WP79)
Mtb-FbiD [2] = target: T2, Mtb-FbiD (Mycobacterium tuberculosis, UniProt P9WP83)
Mtb-FbiA [3] = target: T3, Mtb-FbiA (Mycobacterium tuberculosis, UniProt P9WP81)
Mtb-FbiB [4] = target: T1, Mtb-FbiB; remark: listed apart in the source
Mj-CofC = target: T4, Mj-CofC (Methanocaldococcus jannaschii, UniProt Q58297); assay: coupled HPLC-MS assay with Mtb-FbiA; format: biochemical; conditions: Mtb-FbiA present, 1 mM PEP, 2 mM GTP, 0.1 mM Fo, 5 mM MgCl2, pH 7.5, 37 °C
T4 construct: synthetic ORF in pYUB28b, expressed in E. coli, Ni-NTA and SEC
T4 sequence (Q58297 1-224): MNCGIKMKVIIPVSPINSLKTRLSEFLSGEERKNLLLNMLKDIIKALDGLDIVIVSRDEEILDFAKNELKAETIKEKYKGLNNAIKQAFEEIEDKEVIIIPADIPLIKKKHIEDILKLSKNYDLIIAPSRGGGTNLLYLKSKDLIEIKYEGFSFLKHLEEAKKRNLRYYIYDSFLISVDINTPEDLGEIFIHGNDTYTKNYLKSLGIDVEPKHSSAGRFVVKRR

Mtb-FbiD [5] = target: T2, Mtb-FbiD; remark: listed apart in the source
Mtb-FbiA [6] = target: T3, Mtb-FbiA; remark: listed apart in the source

T1 sequence (P9WP79 whole entry): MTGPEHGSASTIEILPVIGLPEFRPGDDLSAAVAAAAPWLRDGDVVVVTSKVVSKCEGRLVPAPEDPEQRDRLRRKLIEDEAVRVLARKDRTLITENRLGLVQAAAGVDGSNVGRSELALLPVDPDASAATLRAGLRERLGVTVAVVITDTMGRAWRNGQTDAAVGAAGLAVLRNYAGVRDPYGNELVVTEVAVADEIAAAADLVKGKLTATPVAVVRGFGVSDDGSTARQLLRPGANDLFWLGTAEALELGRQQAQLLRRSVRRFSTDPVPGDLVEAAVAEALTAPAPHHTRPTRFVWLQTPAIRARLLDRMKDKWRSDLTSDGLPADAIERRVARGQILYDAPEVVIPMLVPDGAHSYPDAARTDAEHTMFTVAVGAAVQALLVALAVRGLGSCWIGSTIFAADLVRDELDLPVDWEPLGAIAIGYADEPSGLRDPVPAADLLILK
T2 sequence (P9WP83 whole entry): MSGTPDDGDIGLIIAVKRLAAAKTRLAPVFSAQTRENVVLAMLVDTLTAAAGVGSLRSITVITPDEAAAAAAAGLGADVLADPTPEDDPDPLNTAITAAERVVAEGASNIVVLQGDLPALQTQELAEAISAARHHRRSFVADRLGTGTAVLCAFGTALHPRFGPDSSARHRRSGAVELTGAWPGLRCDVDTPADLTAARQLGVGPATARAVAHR
T3 sequence (P9WP81 whole entry): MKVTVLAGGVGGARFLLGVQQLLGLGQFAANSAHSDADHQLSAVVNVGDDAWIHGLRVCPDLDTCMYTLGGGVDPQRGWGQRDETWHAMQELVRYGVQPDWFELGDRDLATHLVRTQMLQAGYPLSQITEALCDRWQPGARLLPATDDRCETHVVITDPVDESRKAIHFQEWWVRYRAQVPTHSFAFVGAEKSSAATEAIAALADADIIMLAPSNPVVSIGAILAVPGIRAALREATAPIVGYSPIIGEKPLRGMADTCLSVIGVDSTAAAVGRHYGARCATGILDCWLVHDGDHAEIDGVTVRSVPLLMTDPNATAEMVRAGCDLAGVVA

## N[C@@H](CCC(=O)O)C(=O)O [L-glutamate]
Mtb-FbiB [1]
  coupled FbiD:FbiA:FbiB assay, LC-MS: Mtb-FbiB was observed to catalyze the addition of L-glutamate residues to dehydro-F420-0

## Nc1nc2c(ncn2[C@@H]2O[C@H](COP(=O)(O)OP(=O)(O)OP(=O)(O)O)[C@@H](O)[C@H]2O)c(=O)[nH]1 [GTP, guanosine-5ʹ-triphosphate]
Mtb-FbiD [2]
  coupled HPLC-MS assay with FbiA: Mtb-FbiD exclusively utilizes GTP to produce dehydro-F420-0

## C=C(OP(=O)(O)OC[C@@H](O)[C@@H](O)[C@@H](O)Cn1c2nc(=O)[nH]c(=O)c-2cc2ccc(O)cc21)C(=O)O [dehydro-F420-0]
Mtb-FbiA [3]
  coupled HPLC assay, MS/MS: The discovery of dehydro-F420-0 as the product of FbiD:FbiA activity in mycobacteria
Mtb-FbiB [4]
  coupled FbiD:FbiA:FbiB assay with Fre/FMNH2, MS/MS: dehydro-F420-0 is a bona fide metabolic intermediate that can be converted to mature F420 by FbiB

## C=C(OP(=O)(O)O)C(=O)O [PEP, phosphoenolpyruvate]
Mj-CofC
  coupled HPLC-MS assay with Mtb-FbiA: both Mtb-FbiD and CofC from Methanocaldococcus jannaschii (Mj-CofC) enzymes use PEP to produce dehydro-F420-0
Mtb-FbiD [5]
  X-ray crystal structure, soak, 2.18 Å: We also soaked PEP into pre-formed FbiD crystals to obtain an FbiD-PEP complex

## O=c1nc2n(C[C@H](O)[C@H](O)[C@H](O)CO)c3cc(O)ccc3cc-2c(=O)[nH]1 [Fo, 7,8-didemethyl-8-hydroxy-5-deazariboflavin]
Mtb-FbiA [6]
  coupled HPLC-MS assay with FbiD or CofC: when these enzymes were incubated with PEP, GTP (or ATP), and Fo
